7 molecules from paper PMC5802399 (Nature, 2017) can be followed below.

Data set [1] is classed as physicochemical. The settings on record: pH 7.4.
The format of data set [2] is physicochemical. To be noted: pH 7.4. This is another data set of the same source.
Data set [3] concerns CA09 influenza virus (H1N1). In kind it is cell-based, Influenza A H1N1.
Another data set deals with PR8 influenza virus. In kind it is cell-based, Influenza A H1N1.
For data set [4], the system named is group-1 influenza strains (H1N1, H5N1 and H6N2). It counts as cell-based, Influenza A.
The test system of the next data set is HK/X31 (H3N2), group 2. In kind it is cell-based, Influenza A.
Data set [5] has as its system H1N1 CA09 virus. Set-up: species or system BALB/c mice. The settings on record: mouse, in vivo.
Data set [6] concerns H1N1 CA09 virus. Set-up: species or system BALB/c mice. The settings on record: mouse, in vivo. The source holds these as a separate data set.

Where two headings read alike, the source gives them in different places. Bridge positions count the residues as written; N and C are the ends. Ends that are not written are not given here. Peptide text beside a SMILES is read from it.

“HB1.5702.3: chemically synthesized HA binder (TSGVRATSKFAALIAAEIAREFGYTVDVQEKNGEWRVVFD)”: in the data set with trypsin, the “trypsin concentration above which gel bands weaken (proteolytic degradation)” value is > 2.86 µM.
In the case of “TMTSITTSPFAAEIAARIWAEFGYTVRIETRGKTVHVTVD [HB1.6811.3]”, in [1], the Tm amounted to 70 °C.
With “HB1.6394.2: chemically synthesized HA binder containing disulfides (CQEYRFTNPFACQIALEILRDFGYACTVQTINGECRVRCC; disulfide (positions not given here))”, the degradation by trypsin result with trypsin was “no degradation”.
Take “TSRVRATSKFAALIAAEIAREFGYTVDVQEVNGQWEVTFD [HB1.5702.2]”: in [1], the Tm is 72 °C.
For the molecule `CC[C@H](C)[C@@H]1NC(=O)[C@H](CCC(=O)O)NC(=O)[C@H](C)NC(=O)[C@H](C)NC(=O)[C@H]([C@@H](C)O)NC(=O)[C@H](CCC(N)=O)NC(=O)[C@@H]2CSSC[C@H](NC(=O)[C@H](CC(N)=O)NC(=O)CNC(=O)[C@H](CC(N)=O)NC(=O)[C@H](CC(=O)O)NC(=O)[C@H](C(C)C)NC(=O)[C@H](CCSC)NC(=O)[C@H]([C@@H](C)CC)NC(=O)[C@H](CCCCN)NC(=O)[C@H](C(C)C)NC(=O)[C@H]([C@@H](C)O)NC(=O)[C@H](Cc3ccc(O)cc3)NC(=O)CNC(=O)[C@H](Cc3ccccc3)NC(=O)[C@H](C)NC(=O)[C@H](CCCNC(=N)N)NC(=O)[C@H](Cc3c[nH]c4ccccc34)NC1=O)C(=O)N[C@@H](CCCNC(=N)N)C(=O)N[C@@H](CC(C)C)C(=O)N[C@@H](Cc1c[nH]cn1)C(=O)N[C@@H](C(C)C)C(=O)N[C@H](C(=O)O)CSSC[C@H](N)C(=O)N[C@@H]([C@@H](C)CC)C(=O)N[C@@H](CCC(=O)O)C(=O)N[C@@H](CCC(N)=O)C(=O)N[C@@H](CO)C(=O)N[C@@H](Cc1ccccc1)C(=O)N[C@@H]([C@@H](C)O)C(=O)N[C@@H]([C@@H](C)O)C(=O)N[C@@H](CC(C)C)C(=O)N[C@@H](Cc1ccccc1)C(=O)N[C@@H](C)C(=O)N2` [HB1.6928.2.3] (H-CIEQSFTTLFACQTAAEIWRAFGYTVKIMVDNGNCRLHVC-OH; disulfide 1-40, 12-35; N-terminus and C-terminus assumed), the Tm in data set [1] is >95 °C. Further, the “reduction of binding activity after incubation at 80 °C” value in data set [2] is listed as “no detectable loss of binding”. In [3], the “EC50 for Cal09 (CA09), fold lower than FI6v3 or HB36.6” value is recorded as “more than 100 fold” and the “neutralization of CA09 virus” value was “strongly neutralized”. Further, in the data set with PR8 influenza virus, the “neutralization of PR8 virus” value is recorded as “strongly neutralized”. Moreover, in [4], the “efficiency (EC50) in inhibiting infection, compared with HB36.6 and FI6v3” value is “most efficiently inhibited infection”. The “neutralization of H3N2” value in the data set on HK/X31 (H3N2), group 2 was “no neutralization”. In the data set with H1N1 CA09 virus [5], the “protection after intravenous administration” value is “little protection”, the “protection after repeated administration compared with no prior dosing” value is “remains equally protective” and the survival stood at 100%. Further, in the data set on H1N1 CA09 virus [6], the survival is listed as 100% and the weight loss entry is given as “less than 10%”.
Turning to “TSGVRATSKFAALIAAEIAREFGYTVDVQEKNGEWRVVFD [HB1.5702.3.3]”, the Tm in data set [1] was found to be 70 °C.
As to “HB1.6928.2: chemically synthesized HA binder containing disulfides (CIEQSFTTLFACQTAAEIWRAFGYTVKIMVDNGNCRLHVC; disulfide (positions not given here))”, in the data set on trypsin, the degradation by trypsin result is “no degradation”.
